Measurements published in ChEMBL document CHEMBL1201862, “PubChem BioAssay data set” (2004).
Active and inactive are the calls of the source.

Columns and labels:
[1] = molecular target: Botulinum neurotoxin type F (Clostridium botulinum, UniProt P30996); experiment: High-throughput multiplex microsphere dose response for inhibitors of toxin protease, specifically Botulinum neurotoxin light chain F protease, compounds from Cherry Pick 02.; format: functional; conditions: read-out: EC50_MICROM
[2] = molecular target: Fructose-bisphosphate aldolase (Mycobacterium tuberculosis, UniProt P9WQA3); experiment: Fluorescence-based biochemical high throughput dose response assay for inhibitors of the fructose-bisphosphate aldolase (FBA) of M. tuberculosis.; format: functional
[3] = NIH3T3 cell viability loss – ATP luminescence, mouse fibroblasts, counter-screen, dose response (AID 2010); format: functional, cell-based;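 also: cells exposed to compound for about 90 hours before reading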
[4] = Trypanosoma cruzi growth suppression in host cells – NIH3T3 host cells, beta-gal luminescence, confirmation (AID 2044); format: functional, cell-based;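 also: intracellular parasites grown in NIH/3T3 mouse fibroblasts as host cells; luminescent beta-galactosidase reporter signal from transgenic T. cruzi replicating inside host cells; inhibitors lower the luminescence signal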
[5] = THP-1 cell cytotoxicity, cytotoxicity control, set 6 (AID 602433); format: functional; conditions: Mycobacterium tuberculosis
[6] = human cervical cancer cell viability loss – 24 h, plate reader, dry powder, cytotoxicity control, dose response (AID 686928); format: functional, cell-based; conditions: HeLa
[7] = viability loss in Vero cells – cell-based, purified and synthesized samples, set 8, cytotoxicity control for M. tuberculosis inhibitor project (AID 602431); format: functional; conditions: Mycobacterium tuberculosis
[8] = potency of ADAM10 substrate cleavage blockers – biochemical, QFRET, dose response (AID 743254);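 also: ADAM10 enzyme with the DM2 quenched FRET peptide as substrate; EDANS fluorescence gain as the protease cuts the substrate; inhibitor potency against ADAM10 proteolytic activity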
[9] = molecular target: Disintegrin and metalloproteinase domain-containing protein 17 (Homo sapiens, UniProt P78536); experiment: inhibition of ADAM17 substrate cleavage – biochemical, quenched FRET substrate, counter-screen for ADAM10 exosite inhibitor project, dose response (AID 743253)
[10] = molecular target: T1, Calpain-2 catalytic subunit (Sus scrofa, UniProt P43367); experiment: m-calpain protease blockers, concentration series – biochemical, fluorogenic peptide substrate, dose response (AID 1420); format: functional
T1 sequence (P43367 whole entry): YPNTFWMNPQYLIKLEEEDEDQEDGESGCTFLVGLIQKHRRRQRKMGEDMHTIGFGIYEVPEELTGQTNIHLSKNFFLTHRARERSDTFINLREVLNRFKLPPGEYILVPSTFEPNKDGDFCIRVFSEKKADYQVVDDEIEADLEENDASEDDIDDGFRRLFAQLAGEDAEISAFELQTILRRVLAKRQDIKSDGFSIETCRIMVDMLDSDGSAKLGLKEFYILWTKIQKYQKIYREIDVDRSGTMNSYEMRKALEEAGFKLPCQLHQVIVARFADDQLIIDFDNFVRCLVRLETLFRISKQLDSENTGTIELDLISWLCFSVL

[11] = molecular target: 1-phosphatidylinositol 4,5-bisphosphate phosphodiesterase beta-3 (Homo sapiens, UniProt Q01970); experiment: Fluorescence-based biochemical high throughput dose response assay to identify inhibitors of phospholipase C isozymes (PLC-B3).
[12] = molecular target: 1-phosphatidylinositol 4,5-bisphosphate phosphodiesterase gamma-1 (Homo sapiens, UniProt P19174); experiment: Counterscreen for inhibitors of phospholipase C isozymes (PLC-B3): Fluorescence-based biochemical high throughput dose response assay to identify inhibitors of phospholipase C isozymes (PLC-gamma1).
[13] = Late stage counterscreen for inhibitors of Trypanosoma brucei methionyl tRNA synthetase (MetRS): Luminescence-based cell-based high throughput dose response assay to identify compounds that are cytotoxic to Jurkat human T lymphocyte cells.; format: functional
[14] = Late stage assay provider results from the probe development effort to identify selective inhibitors of heat shock protein 90 (HSP90): Absorbance-based cell proliferation assay in MCF7 cells.; format: functional
[15] = Late stage assay provider results from the probe development effort to identify selective inhibitors of heat shock protein 90 (HSP90): Absorbance-based cell proliferation assay in SKBR3 cells.; format: functional; conditions: SK-BR-3
[16] = molecular target: T2, Trace amine-associated receptor 1 (Homo sapiens, UniProt Q96RJ0); experiment: Fluorescence-based cell-based high throughput dose response assay to identify antagonists of the human trace amine associated receptor 1 (TAAR1).; format: functional
T2 sequence (Q96RJ0 whole entry): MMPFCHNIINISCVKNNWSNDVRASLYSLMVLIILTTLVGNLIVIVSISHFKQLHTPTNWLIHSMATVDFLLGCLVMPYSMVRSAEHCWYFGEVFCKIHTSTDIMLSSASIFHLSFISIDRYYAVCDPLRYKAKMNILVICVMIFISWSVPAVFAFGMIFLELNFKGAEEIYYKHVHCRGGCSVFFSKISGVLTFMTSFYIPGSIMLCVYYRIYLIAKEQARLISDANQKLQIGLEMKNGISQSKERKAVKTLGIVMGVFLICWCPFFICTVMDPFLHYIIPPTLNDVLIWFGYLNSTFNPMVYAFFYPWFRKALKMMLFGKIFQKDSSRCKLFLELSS

[17] = Counterscreen for […] of the human trace amine associated receptor 1 (TAAR1): Fluorescence-based cell-based high throughput dose response assay to identify nonselective Ga16 agonists.; format: functional
[18] = molecular target: T2, Trace amine-associated receptor 1; experiment: Counterscreen for antagonists of the human trace amine associated receptor 1 (hTAAR1): Fluorescence-based cell-based high throughput dose response assay to identify TAAR1 Agonists.; format: functional
[19] = Counterscreen for antagonists of the human trace amine associated receptor 1 (hTAAR1): Fluorescence-based cell-based high throughput dose response assay to identify nonselective Ga16 antagonists.; format: functional
[20] = molecular target: T3, Beta-2 adrenergic receptor (Homo sapiens, UniProt P07550); experiment: ADRB2 activation measured by internalization – cell-based, FAP fluorogen, flow cytometry, cherry pick 1, dose response (AID 588763); format: functional
[21] = molecular target: T3, Beta-2 adrenergic receptor; experiment: Dose response for HTS for Beta-2AR agonists via FAP method from Powderset3.; format: functional
[22] = general mammalian cell viability loss – inhibitor set, cherry-pick, set 2, cytotoxicity control for miR-122 modulator project, dose response (AID 720697); format: functional, cell-based
[23] = general mammalian cell viability loss – activator set, cherry-pick, cytotoxicity control for miR-122 modulator project, dose response (AID 720690); format: functional, cell-based;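 also: HEK293T human cells scored for general mammalian cytotoxicity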
[24] = activation of miR-122 Renilla sensor silencing – cell-based, Huh7 psiCHECK-miR122, Renilla luciferase, cherry-picked, dose response (AID 651956); format: functional;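 also: huh7 hepatoma cells stably carrying a psiCHECK-2 miR-122 sensor plasmid; renilla luciferase signal reporting endogenous miR-122 activity after 48 h compound exposure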

T3 sequence (P07550 whole entry): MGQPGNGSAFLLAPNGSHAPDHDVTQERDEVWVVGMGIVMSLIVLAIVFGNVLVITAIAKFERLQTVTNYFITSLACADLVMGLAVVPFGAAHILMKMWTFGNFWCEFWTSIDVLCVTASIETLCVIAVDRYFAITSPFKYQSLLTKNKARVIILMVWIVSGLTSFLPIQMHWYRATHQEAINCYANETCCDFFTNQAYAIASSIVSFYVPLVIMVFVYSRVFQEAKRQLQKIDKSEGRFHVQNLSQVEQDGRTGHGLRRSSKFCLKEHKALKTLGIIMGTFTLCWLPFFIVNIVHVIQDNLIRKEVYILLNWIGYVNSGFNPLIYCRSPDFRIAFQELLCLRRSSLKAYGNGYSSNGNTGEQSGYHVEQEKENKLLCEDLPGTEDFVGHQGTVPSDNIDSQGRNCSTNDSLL
1-phosphatidylinositol 4,5-bisphosphate phosphodiesterase gamma-1, sequence (P19174 whole entry): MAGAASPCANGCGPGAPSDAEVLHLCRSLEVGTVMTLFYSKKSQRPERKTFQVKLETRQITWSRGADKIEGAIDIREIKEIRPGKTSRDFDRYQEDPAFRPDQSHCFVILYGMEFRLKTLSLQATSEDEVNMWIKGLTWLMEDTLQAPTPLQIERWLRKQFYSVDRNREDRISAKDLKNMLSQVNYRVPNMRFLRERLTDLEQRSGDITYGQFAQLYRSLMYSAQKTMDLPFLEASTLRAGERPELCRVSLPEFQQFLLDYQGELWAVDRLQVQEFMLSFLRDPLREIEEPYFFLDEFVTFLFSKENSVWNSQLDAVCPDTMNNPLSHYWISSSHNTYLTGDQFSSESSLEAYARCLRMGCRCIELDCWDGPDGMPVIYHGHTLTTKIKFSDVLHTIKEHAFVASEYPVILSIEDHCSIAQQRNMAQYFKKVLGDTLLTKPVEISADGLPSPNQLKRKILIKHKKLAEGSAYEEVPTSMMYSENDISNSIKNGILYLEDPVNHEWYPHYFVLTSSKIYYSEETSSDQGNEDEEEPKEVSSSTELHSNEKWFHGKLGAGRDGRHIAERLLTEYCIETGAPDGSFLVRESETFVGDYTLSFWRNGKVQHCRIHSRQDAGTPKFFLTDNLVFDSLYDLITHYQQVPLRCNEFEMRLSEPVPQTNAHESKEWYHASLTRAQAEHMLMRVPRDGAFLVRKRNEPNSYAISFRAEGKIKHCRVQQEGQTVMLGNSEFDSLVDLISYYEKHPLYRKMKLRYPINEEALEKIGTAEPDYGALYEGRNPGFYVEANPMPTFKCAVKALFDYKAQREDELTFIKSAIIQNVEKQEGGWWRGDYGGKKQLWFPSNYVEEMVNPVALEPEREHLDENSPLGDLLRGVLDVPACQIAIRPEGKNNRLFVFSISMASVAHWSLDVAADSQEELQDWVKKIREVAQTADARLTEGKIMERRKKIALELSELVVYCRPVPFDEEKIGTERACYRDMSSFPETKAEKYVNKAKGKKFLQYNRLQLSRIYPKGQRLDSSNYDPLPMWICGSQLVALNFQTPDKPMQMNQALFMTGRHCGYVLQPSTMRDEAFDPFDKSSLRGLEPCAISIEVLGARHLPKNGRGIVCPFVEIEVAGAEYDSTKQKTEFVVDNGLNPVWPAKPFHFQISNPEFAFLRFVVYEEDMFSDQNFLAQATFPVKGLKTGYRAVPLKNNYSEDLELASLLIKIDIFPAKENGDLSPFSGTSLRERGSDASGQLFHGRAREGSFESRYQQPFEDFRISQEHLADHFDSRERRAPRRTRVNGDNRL
Fructose-bisphosphate aldolase, sequence (P9WQA3 whole entry): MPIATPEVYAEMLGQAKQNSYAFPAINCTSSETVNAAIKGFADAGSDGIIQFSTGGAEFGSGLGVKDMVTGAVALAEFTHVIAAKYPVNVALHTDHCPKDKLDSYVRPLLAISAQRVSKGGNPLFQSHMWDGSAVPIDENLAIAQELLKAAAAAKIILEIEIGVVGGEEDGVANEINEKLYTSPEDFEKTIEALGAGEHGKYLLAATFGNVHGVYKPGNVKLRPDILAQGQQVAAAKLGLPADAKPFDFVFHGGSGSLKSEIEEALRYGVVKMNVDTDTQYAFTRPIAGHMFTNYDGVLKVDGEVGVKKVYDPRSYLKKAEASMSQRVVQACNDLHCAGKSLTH
1-phosphatidylinositol 4,5-bisphosphate phosphodiesterase beta-3, sequence (Q01970 whole entry): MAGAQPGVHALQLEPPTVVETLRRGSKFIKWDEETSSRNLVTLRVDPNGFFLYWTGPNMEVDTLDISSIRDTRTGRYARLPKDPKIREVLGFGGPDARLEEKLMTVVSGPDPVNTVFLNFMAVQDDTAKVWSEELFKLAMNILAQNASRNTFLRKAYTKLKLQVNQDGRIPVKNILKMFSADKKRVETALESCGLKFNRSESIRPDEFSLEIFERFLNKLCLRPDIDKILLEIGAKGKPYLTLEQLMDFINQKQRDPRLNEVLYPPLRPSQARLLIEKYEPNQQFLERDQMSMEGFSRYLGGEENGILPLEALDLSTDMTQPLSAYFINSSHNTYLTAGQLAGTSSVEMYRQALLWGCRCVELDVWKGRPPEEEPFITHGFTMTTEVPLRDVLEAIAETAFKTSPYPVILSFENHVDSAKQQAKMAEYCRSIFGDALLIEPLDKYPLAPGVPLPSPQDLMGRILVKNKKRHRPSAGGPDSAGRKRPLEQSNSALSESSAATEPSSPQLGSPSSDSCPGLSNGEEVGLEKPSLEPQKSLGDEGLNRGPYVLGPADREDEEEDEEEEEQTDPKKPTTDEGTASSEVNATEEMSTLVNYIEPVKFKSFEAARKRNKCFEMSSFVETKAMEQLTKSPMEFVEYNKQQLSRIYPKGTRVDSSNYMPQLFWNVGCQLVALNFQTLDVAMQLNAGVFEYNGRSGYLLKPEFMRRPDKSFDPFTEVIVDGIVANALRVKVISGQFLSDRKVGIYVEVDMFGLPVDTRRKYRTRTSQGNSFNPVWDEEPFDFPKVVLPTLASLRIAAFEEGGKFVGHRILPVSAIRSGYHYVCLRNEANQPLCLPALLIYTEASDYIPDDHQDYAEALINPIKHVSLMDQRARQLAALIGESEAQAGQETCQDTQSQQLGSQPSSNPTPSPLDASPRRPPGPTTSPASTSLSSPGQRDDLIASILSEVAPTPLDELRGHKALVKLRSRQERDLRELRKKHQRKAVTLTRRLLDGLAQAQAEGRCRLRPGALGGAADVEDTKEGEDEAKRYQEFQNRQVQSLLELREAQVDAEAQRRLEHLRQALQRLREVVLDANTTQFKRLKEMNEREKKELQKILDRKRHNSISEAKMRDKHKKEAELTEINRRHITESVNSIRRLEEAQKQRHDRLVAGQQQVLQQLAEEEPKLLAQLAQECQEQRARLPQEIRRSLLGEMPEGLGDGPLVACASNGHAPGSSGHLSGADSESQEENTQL
Disintegrin and metalloproteinase domain-containing protein 17, sequence (P78536 whole entry, the tested form may be a part): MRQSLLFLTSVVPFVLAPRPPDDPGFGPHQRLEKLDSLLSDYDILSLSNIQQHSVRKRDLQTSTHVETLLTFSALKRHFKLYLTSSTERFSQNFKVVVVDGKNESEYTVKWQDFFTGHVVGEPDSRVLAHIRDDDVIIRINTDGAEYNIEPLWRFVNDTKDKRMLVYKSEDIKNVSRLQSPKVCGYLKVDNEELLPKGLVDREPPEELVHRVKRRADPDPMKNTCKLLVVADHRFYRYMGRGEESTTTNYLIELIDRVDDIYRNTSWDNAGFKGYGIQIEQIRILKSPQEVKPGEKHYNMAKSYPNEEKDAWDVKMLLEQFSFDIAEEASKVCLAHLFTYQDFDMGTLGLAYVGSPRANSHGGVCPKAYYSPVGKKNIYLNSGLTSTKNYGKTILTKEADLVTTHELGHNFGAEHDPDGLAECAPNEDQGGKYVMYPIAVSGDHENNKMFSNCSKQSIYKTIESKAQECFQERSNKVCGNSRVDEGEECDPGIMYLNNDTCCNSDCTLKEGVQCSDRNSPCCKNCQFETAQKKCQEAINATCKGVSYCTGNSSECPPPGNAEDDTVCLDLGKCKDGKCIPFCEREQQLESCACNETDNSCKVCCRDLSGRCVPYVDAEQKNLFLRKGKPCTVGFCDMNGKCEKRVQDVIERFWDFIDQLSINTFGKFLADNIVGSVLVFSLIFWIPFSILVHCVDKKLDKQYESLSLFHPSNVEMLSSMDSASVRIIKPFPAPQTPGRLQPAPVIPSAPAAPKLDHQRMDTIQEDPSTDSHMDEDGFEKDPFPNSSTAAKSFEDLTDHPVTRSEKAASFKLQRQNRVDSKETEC
Botulinum neurotoxin type F, sequence (P30996 1-436 limits assumed): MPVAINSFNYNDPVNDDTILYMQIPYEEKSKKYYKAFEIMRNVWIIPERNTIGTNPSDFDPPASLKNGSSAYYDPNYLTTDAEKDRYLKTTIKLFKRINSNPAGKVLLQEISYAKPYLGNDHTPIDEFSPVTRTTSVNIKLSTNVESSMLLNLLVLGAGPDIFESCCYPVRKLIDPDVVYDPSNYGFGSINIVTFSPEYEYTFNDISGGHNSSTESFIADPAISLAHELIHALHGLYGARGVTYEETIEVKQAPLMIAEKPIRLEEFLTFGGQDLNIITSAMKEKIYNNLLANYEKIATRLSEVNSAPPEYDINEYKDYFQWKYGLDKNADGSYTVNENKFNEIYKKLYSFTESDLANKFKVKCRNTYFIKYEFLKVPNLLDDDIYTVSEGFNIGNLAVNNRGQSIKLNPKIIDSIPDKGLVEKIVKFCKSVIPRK

With `COc1ccccc1Cc1c(-c2ccc(F)cc2)nc2cc(C)c(Br)c(C)n12` the EC50 [1] was > 20 µM (inactive).
With `Nc1nc2n(n1)C(c1cccs1)CC(c1ccc(Br)cc1)N2` (centres undefined) the IC50 [2] was 4.61 µM (active), the EC50 [3] was > 60 µM (not active) and the EC50 [4] was 4.37 µM (active).
For `O=C(CSc1nc2ccccc2c(=O)[nH]1)NC1CCCCC1`, the CC50 [5] was > 100 µM (inconclusive), the AC50 [6] was > 160 µM (inactive) and the CC50 [7] was > 100 µM (inconclusive).
With `O=C(COC(=O)CCCSc1nc2ccccc2[nH]1)Nc1ccc(Oc2ccccc2)cc1` the IC50 [8] was 8.39 µM (active), the IC50 [9] was > 69.5 µM (inactive) and the IC50 [10] was 7.16 µM (not active).
In the case of `CCn1c(=S)sc2c(=O)n(CC(=O)Nc3cccc(Cl)c3)c(C)nc21`, the IC50 [11] is reported as > 122 µM (inactive) and the IC50 [12] is reported as > 122 µM (inactive).
For `O=C(CN1CCSC1=NCc1ccccc1)c1ccc(Cl)c(Cl)c1`, the IC50 [13] was 83.2 µM (inactive).
For `O=C(O)c1cccc(COc2ccc3cc(Br)c(=O)oc3c2)c1`, the IC50 [14] was > 100 µM (inactive) and the IC50 [15] was > 100 µM (inactive).
With `CSC(=S)N/N=C/c1c[nH]c2ccccc12` the IC50 [16] was 2.6 µM (active), the EC50 [17] was > 29.9 µM (inactive) and the EC50 [18] was > 29.9 µM (inactive). The IC50 [19] was 28.1 µM (inactive).
With `CC1(C)Cc2c(c(N3CCCC3)nc3sc4c(N5CCN(CCO)CC5)ncnc4c23)CO1` the EC50 [20] was 8.76 µM (active) and the EC50 [21] was 1.71 µM (active).
For `CCOC(=O)N1CCC(NC(=O)c2ccc3c(c2)sc2nc(-c4ccccc4)cn23)CC1`, the AC50 [22] was 13.6 µM (active), the AC50 [23] was 12.3 µM (active) and the AC50 [24] was 1.26 µM (active).
